Holding throughout (assay type): biochemical
The subject of experiment [1] is MALT1 in RAW 264.7 cell lysates. As to the kind of experiment: Labeling of active MALT1 in RAW 264.7 cell lysates. The conditions noted are these: RAW 264.7 lysates pretreated with 1 µL of 10 mM mepazine, then 500 nM PKG105. As for the experimental part:
Figure 3 Probe to detect active MALT1. Panel a. Structure of the MALT1 probe (PKG105). Panel b. RAW 264.7 cell lysates were incubated with PKG105 at various concentrations. As a control, lysates were pretreated with mepazine, followed by incubation with probe. Lysates that were not treated with mepazine were also used. SDS-PAGE was performed at 165 V. Fluorescence was scanned using the 700 nm channel (LI-COR). Gels are representative of at least two replicates. TEXT PRINTED IN THE PICTURE: (a) PKG105: kobs/I = 92,000 M^-1s^-1
Twenty-five microliters of RAW 264.7 cell lysates (from 5 * 10^6 cells/mL) were incubated with PKG105 at concentrations ranging from 8 to 500 nM. As controls, cells that were not incubated with probe or cells that were pretreated with 1 µL of 10 mM mepazine were treated with 500 nM PKG105. The lysates were incubated with the probe for 30 minutes at 37 °C, followed by denaturation in 3 × SDS-loading buffer for 5 minutes at 95 °C. SDS-PAGE was performed under reducing conditions for 37 minutes at 165 V. The fluorescence signal in the gel was measured using a Li-Cor (Odyssey®) at a wavelength of 700 nm.

Experiment [2] concerns the target T1, MALT1 (Homo sapiens, UniProt Q9UDY8).
T1 sequence (Q9UDY8 1-824): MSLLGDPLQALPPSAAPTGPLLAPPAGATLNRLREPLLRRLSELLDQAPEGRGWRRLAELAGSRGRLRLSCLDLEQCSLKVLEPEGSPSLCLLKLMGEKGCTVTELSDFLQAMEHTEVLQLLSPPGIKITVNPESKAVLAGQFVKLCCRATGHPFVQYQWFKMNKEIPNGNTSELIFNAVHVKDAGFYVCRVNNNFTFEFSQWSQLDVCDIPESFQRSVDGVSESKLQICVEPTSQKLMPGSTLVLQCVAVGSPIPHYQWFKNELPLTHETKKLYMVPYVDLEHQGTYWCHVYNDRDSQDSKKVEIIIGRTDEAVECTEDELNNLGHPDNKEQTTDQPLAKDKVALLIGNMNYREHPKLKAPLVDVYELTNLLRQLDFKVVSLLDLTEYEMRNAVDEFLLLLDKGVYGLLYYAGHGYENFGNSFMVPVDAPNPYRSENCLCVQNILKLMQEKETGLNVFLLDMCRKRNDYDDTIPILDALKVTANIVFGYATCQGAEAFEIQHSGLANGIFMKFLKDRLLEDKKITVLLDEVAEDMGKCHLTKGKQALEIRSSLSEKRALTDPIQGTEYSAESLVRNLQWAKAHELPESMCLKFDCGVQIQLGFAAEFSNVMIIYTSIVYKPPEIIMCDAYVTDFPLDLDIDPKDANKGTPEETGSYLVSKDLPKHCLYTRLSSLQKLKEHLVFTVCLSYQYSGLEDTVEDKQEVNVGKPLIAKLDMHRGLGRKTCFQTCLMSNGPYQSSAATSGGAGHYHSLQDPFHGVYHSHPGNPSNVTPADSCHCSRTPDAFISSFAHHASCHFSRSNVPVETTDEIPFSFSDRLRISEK
The experiment is described as follows: Kinetic assay of ACC fluorogenic substrates (kcat, Km, kcat/Km). As for the experimental part: Figure 2 MALT1 substrate activity. Panel a. kcat/Km values for MALT1 substrates compared with that of the reference substrate (ALVSR). MALT1 was incubated at 37 °C for 30 minutes and added to the wells containing the substrate at varying concentrations. Relative fluorescence units were measured over time at excitation/emission wavelengths of 355/460 nm for at least 10 minutes. The data represent averages of three separate measurements, and error bars represent standard deviations. Panel b. Structure of our best (lower panel) and the reference (upper panel) MALT1 fluorogenic substrate.
(§1) All kinetic assays were performed with a Spectra Max Gemini XPS spectrofluorimeter (Molecular Devices) and 96-well Corning plates. The measurement characteristics were as follows: 37 °C, excitation/emission wavelength of 355/460 nm, cutoff of 455 nm, and varying concentrations of substrates and enzyme. The assay buffer was prepared at 23 °C and contained 50 mM HEPES (2-[4-(2-hydroxyethyl)piperazin-1-yl]ethanesulfonic acid), 100 mM NaCl, 0.9 M sodium citrate and 10 mM dithiothreitol (DTT) (pH 7.5). MALT1^FL or MALT1^CD were preincubated for 30 minutes at 37 °C before being added to wells containing substrate. Next, the increase in fluorescence was recorded over the time. Only the linear portions of the curves were used for calculations. The kcat and Km values were calculated using GraphPad Prism and Microsoft Excel software. All measurements were repeated three times, and the data presented are averages of these replicates. […]
was carried out after each coupling and Fmoc deprotection step. The N terminus was protected with an acetyl group using 5 eq AcOH, 5 eq HBTU, and 5 eq DIPEA in DMF.
After solvent removal, the resin was washed six times with DMF in order to remove excess reagents, three times with DCM, and three times with MeOH and then dried over P2O5 and cleaved from the resin with a TFA/TIPS/H2O mixture (%, v/v/v, 95:2.5:2.5).
The crude product was purified by HPLC and lyophilized. The purity of each substrate was confirmed by analytical HPLC, and each substrate was analyzed using HRMS.
(§2) Substrates were dissolved in peptide-grade DMSO to a concentration of 20 mM and stored at -80°C until use.
(§3) Calculation of kcat, Km and kcat/Km values
(§4) Kinetic parameters were calculated under the same conditions as the library with slight modification. The total reaction volume in each well was 100 μL. The substrate and enzyme concentrations used ranged from 3.90 μM to 150 μM and 40 μM, respectively.
(§5) The increase in relative fluorescence units was monitored for 20-30 minutes, and only the linear parts of the curves were used to determine the rate of the reaction. The kcat and Km values were calculated using GraphPad Prism software. All measurements were repeated three times using the appropriate concentration of the enzyme, and the data presented are averages of these repetitions.

The next experiment has as its target T2, MALT1^FL (Homo sapiens, UniProt Q9UDY8).
T2 construct: treating full-length MALT1 (MALT1^FL), the MALT1 catalytic domain (MALT1^CD)
T2 sequence (Q9UDY8 1-824): T1 sequence (Q9UDY8 1-824)
The experiment is described as follows: Kinetic assay of IQF substrates, full-length enzyme. The conditions noted are these: IQF substrate, ACC/Lys(Dnp) pair; 37 °C, assay buffer pH 7.5; 355/460 nm; average of three. As for the experimental part:
as §1, §2, §3, §4, §5

The next experiment deals with T3, MALT1^CD (Homo sapiens, UniProt Q9UDY8).
T3 construct: the MALT1 catalytic domain (MALT1^CD)
T3 sequence (Q9UDY8 348-562 limits assumed): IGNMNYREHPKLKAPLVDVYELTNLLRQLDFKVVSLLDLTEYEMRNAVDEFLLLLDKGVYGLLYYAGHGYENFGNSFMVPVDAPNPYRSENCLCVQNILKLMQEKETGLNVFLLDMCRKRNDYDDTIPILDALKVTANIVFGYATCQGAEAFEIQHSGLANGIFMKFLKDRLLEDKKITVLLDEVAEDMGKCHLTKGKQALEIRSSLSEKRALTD
As to the kind of experiment: Kinetic assay of IQF substrates, catalytic domain. The settings on record: IQF substrate, ACC/Lys(Dnp) pair; 37 °C, assay buffer pH 7.5; 355/460 nm; average of three. The procedure:
as §1, §2, §3, §4, §5

Experiment [3] concerns the target T1, MALT1. As to the kind of experiment: P5 library screening (Ac-P5-LVSR-ACC). The settings on record: 100 nM MALT1, 1 µM substrate, 37 °C; 355/460 nm; average of three. As for the experimental part: Figure 1 MALT1 S5-S2 substrate preferences. Panel a. Substrate preferences of the MALT1 S4-S2 pockets; 100 μM library component was treated with 130 nM active site-titrated MALT1 in assay buffer containing 50 mM HEPES, 100 mM NaCl, 0.9 M sodium citrate and 10 mM DTT at pH 7.5. Panel b. Structures of the preferred amino acid residues at the P4-P2 positions of MALT1. Panel c. MALT1 P5 specificity. Specificity profile of MALT1 was determined with the library of general structure Ac-P5-LVSR-ACC; 100 nM MALT1 was incubated at 37 °C for 10 minutes, followed by the addition of 1 µM substrate. Relative fluorescence units were measured over time at excitation/emission wavelengths of 355/460 nm for at least 10 minutes. The data represent averages of three separate measurements, and error bars represent standard deviations.

[4] abbreviates: 37 °C, 50 mM HEPES, 100 mM NaCl, 0.9 M sodium citrate, 10 mM DTT, pH 7.5, substrate 3.90-150 μM, ACC fluorescence 355/460 nm, average of three measurements.

Non-standard residues stand in square brackets, D forms with d. *: point of attachment. ACC = NC(=O)Cc1cc(=O)oc2cc(N*)ccc12; Abu = CC[C@H](N)C(=O)O

What is called Km is the concentration of substrate that gives half-maximal velocity. By kcat is commonly meant the maximal rate divided by the concentration of active sites.

`CN1CCCC(CN2c3ccccc3Sc3ccccc32)C1` (stereo not shown) [Mepazine, reference compound]: the “effect of inhibitor pretreatment on probe labeling” value in experiment [1] is listed as “inhibited MALT1”.

In the case of “Ac-TLVSR-{ACC} (SMILES CC(=O)N[C@H](C(=O)N[C@@H](CC(C)C)C(=O)N[C@H](C(=O)N[C@@H](CO)C(=O)N[C@@H](CCCNC(=N)N)C(=O)Nc1ccc2c(CC(N)=O)cc(=O)oc2c1)C(C)C)[C@@H](C)O) [Ac-Thr-LVSR-ACC]”, at MALT1 [2] (setting [4]), the Km was found to be 22.4 ± 9.94 µM and the kcat came out at 0.12 ± 0.0050 s⁻¹.

Consider “Ac-ALVSR-{ACC} (SMILES CC(=O)N[C@@H](C)C(=O)N[C@@H](CC(C)C)C(=O)N[C@H](C(=O)N[C@@H](CO)C(=O)N[C@@H](CCCNC(=N)N)C(=O)Nc1ccc2c(CC(N)=O)cc(=O)oc2c1)C(C)C) [Ac-Ala-LVSR-ACC, reference compound]”, for which, on MALT1 [2] (setting [4]), the Michaelis-Menten constant (Km) was found to be 9.45 ± 2.46 µM and the kcat amounted to 0.089 ± 0.033 s⁻¹.

Take “Ac-RLVSR-{ACC} (SMILES CC(=O)N[C@@H](CCCNC(=N)N)C(=O)N[C@@H](CC(C)C)C(=O)N[C@H](C(=O)N[C@@H](CO)C(=O)N[C@@H](CCCNC(=N)N)C(=O)Nc1ccc2c(CC(N)=O)cc(=O)oc2c1)C(C)C) [Ac-Arg-LVSR-ACC]”: on MALT1 [2] (setting [4]), the Km was found to be 19.06 ± 0.05 µM and the kcat was 0.12 ± 0.0003 s⁻¹.

Turning to “Ac-[Abu]LVSR-{ACC} (SMILES CC[C@H](NC(C)=O)C(=O)N[C@@H](CC(C)C)C(=O)N[C@H](C(=O)N[C@@H](CO)C(=O)N[C@@H](CCCNC(=N)N)C(=O)Nc1ccc2c(CC(N)=O)cc(=O)oc2c1)C(C)C) [Ac-Abu-LVSR-ACC]”, at MALT1 [2] (setting [4]), the Km worked out at 22.15 ± 0.01 µM and the kcat is 0.19 ± 0.0295 s⁻¹.

Consider “H2N-ACC-Ahx-A-L-V-S-R–G-Nva-K(Dnp)G-OH [Substrate M1]”, for which the “kcat/Km, MALT1^FL” value on MALT1^FL is listed as 4.8 * 10^3 ± 362 M^−1s^−1. For the same compound, on MALT1^CD, the “kcat/Km, MALT1^CD” value is 3.5 * 10^3 ± 165 M^−1s^−1.

Regarding “Ac-[dA]LVSR-{ACC} (SMILES CC(=O)N[C@H](C)C(=O)N[C@@H](CC(C)C)C(=O)N[C@H](C(=O)N[C@@H](CO)C(=O)N[C@@H](CCCNC(=N)N)C(=O)Nc1ccc2c(CC(N)=O)cc(=O)oc2c1)C(C)C) [Ac-D-Ala-LVSR-ACC]”, on MALT1 [2] (setting [4]), the Km was found to be 24.4 ± 6.97 µM and the turnover number (kcat) stood at 0.076 ± 0.034 s⁻¹.

With “H2N-ACC-Ahx-A-L-V-S-R–G-Abu-K(Dnp)G-OH [Substrate M2]”, the “kcat/Km, MALT1^FL” value at MALT1^FL is recorded as 5.5 * 10^3 ± 291 M^−1s^−1. Further, the “kcat/Km, MALT1^CD” value at MALT1^CD was 2.6 * 10^3 ± 38 M^−1s^−1.

For “H2N-ACC-Ahx-A-L-V-S-R–G-Thr-K(Dnp)G-OH [Substrate M3]”, the “kcat/Km, MALT1^FL” value at MALT1^FL is recorded as 6.3 * 10^3 ± 311 M^−1s^−1. For the same compound, at MALT1^CD, the “kcat/Km, MALT1^CD” value is recorded as 2.8 * 10^3 ± 101 M^−1s^−1.

As to “Ac-KLVSR-{ACC} (SMILES CC(=O)N[C@@H](CCCCN)C(=O)N[C@@H](CC(C)C)C(=O)N[C@H](C(=O)N[C@@H](CO)C(=O)N[C@@H](CCCNC(=N)N)C(=O)Nc1ccc2c(CC(N)=O)cc(=O)oc2c1)C(C)C) [Ac-Lys-LVSR-ACC]”, at MALT1 [2] (setting [4]), the Km is 25.5 ± 3.56 µM and the kcat came to 0.12 ± 0.0010 s⁻¹.

With Ac-Phe(guan)-LVPR-ACC-OH, the kcat/Km at MALT1 [2] (setting [4]) was 28,000 s^−1M^−1. For the same compound, the “rate of substrate hydrolysis (kcat/Km)” value at MALT1 [2] (estimated) was 28,000 M^−1s^−1. In addition, the “kcat/Km relative to the best reported substrate to date” value on MALT1 [2] (times higher) is reported as “approximately 3.5 times”.

As for “Ac-[dV]LVSR-{ACC} (SMILES CC(=O)N[C@@H](C(=O)N[C@@H](CC(C)C)C(=O)N[C@H](C(=O)N[C@@H](CO)C(=O)N[C@@H](CCCNC(=N)N)C(=O)Nc1ccc2c(CC(N)=O)cc(=O)oc2c1)C(C)C)C(C)C) [Ac-D-Val-LVSR-ACC]”, at MALT1 [2] (setting [4]), the Km came out at 19.2 ± 2.5 µM and the kcat was found to be 0.15 ± 0.012 s⁻¹.

For the compound Ac-Y(Bzl)-L-V-S-R-ACC-OH, the “activity at the P5 position in the library screen” value on MALT1 [3] was “least active”.
